Data as given in US8471005B2 (Cephalon, Inc., priority 2008, dated 2013).
Like-named read-outs stand apart in the source and are kept apart here.

Experiments:
ALK = target: T1, ALK (Homo sapiens, UniProt Q9UM73); assay: ALK Kinase Assay (ELISA/TRF, PLC-γ substrate); format: biochemical; details: read-out: ALK Potency
T1 construct: host or cells: baculovirus expression system
Method in brief: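 Time-resolved fluorescence ELISA using Eu-N1 PT66 antibody to detect phosphorylated PLC-γ (coated at 10 μg/mL). Enzyme at 30 ng/ml ALK; 15 min incubation, 37° C.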

JAK2 = target: T2, JAK2 (Homo sapiens, UniProt O60674); assay: Recombinant Human JAK2 Kinase Assay (TRF); format: biochemical; details: read-out: JAK2 Potency
T2 construct: host or cells: baculovirus expression system
T2 sequence (O60674 whole entry): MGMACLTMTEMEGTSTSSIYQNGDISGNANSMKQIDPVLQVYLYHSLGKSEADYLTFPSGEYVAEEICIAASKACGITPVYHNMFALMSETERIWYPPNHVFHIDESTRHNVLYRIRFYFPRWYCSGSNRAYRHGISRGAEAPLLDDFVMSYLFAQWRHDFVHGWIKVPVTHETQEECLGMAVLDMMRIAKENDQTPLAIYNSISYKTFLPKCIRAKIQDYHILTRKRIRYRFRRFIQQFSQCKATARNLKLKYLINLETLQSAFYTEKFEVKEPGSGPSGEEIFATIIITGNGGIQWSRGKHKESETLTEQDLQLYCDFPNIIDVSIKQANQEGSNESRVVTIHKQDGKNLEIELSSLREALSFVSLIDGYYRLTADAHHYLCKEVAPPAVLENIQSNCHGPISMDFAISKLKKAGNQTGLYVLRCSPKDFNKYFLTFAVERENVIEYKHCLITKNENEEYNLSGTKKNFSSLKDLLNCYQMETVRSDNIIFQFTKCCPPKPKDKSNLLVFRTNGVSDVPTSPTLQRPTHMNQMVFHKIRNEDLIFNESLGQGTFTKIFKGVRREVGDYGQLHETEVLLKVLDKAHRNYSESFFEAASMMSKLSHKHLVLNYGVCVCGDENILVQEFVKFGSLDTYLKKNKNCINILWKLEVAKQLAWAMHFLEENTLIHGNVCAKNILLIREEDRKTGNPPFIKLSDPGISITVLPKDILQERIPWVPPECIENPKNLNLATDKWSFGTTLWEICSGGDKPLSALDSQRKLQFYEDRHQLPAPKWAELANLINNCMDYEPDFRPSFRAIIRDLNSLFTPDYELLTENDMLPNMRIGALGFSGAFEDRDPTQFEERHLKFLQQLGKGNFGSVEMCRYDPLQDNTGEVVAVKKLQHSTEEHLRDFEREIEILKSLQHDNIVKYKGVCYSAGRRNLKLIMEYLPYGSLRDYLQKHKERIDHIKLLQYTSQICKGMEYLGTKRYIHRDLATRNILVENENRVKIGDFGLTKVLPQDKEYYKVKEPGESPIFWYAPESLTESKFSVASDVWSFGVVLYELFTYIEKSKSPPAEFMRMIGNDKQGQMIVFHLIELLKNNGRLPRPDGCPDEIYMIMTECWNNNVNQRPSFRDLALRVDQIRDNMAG
Method in brief: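 Europium-labelled PY100 antibody reported tyrosine phosphorylation of a Neutravidin-captured biotinyl 15-mer peptide by JAK2 (baculovirus-expressed, 15 ng/ml). Conditions: 20 mM HEPES pH 7.2, 0.2 μM ATP, 1 mM MnCl2, 0.1% BSA, DMSO 2.5% final, 20 min at room temperature.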

[1] = ALK kinase inhibition, 1 μM ATP
[2] = JAK2 kinase inhibition, 0.2 μM ATP

T1 sequence (Q9UM73 19-1620): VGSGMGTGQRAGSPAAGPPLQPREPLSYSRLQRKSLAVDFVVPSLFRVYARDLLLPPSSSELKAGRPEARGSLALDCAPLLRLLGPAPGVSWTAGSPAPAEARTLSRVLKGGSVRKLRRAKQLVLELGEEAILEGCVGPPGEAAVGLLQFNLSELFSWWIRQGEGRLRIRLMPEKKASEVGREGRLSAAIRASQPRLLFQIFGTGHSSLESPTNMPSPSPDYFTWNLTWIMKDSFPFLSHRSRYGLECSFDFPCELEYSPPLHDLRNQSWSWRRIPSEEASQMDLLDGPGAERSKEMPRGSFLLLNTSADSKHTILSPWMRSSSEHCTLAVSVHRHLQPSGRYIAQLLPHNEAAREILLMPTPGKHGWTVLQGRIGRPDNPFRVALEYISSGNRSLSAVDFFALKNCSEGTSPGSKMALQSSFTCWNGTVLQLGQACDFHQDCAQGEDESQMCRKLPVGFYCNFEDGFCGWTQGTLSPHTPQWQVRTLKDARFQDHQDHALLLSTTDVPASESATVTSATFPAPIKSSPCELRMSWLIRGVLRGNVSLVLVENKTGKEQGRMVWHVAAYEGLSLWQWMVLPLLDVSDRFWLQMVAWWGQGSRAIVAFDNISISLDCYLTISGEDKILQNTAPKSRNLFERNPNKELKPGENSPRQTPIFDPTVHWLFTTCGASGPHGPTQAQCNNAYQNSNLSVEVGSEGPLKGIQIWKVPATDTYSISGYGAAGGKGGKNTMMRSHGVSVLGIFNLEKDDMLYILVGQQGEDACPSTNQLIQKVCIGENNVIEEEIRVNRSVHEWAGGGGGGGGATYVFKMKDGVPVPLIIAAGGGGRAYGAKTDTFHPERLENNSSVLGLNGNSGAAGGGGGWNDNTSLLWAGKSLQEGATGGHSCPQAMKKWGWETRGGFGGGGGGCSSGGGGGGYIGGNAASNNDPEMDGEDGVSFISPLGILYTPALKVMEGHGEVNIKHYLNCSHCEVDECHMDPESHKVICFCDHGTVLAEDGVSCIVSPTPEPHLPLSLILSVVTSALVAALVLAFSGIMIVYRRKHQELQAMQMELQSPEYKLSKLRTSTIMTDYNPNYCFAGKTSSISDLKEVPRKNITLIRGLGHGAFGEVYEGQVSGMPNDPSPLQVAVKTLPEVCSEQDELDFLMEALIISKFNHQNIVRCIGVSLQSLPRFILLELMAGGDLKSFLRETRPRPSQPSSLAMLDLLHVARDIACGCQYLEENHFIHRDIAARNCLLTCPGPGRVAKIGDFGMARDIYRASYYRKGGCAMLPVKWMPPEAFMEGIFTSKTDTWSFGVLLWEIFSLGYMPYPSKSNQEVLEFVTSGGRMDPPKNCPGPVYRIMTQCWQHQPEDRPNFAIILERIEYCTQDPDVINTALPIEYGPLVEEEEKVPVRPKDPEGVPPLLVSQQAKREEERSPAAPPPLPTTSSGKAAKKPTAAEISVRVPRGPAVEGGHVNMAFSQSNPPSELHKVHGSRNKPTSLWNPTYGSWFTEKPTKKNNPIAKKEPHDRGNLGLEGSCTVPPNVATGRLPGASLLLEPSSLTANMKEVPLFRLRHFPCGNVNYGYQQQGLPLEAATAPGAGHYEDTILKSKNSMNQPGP

IC50 (ALK; ALK Kinase Inhibition) [µM]	IC50 (JAK2; JAK2 Kinase Inhibition) [µM]	IC50 (ALK; [1]) [µM]	IC50 (JAK2; [2]) [µM]	Structure (SMILES)
0.1 to 1	1 to 10			COc1cc(N2CCN(C)CC2)ccc1Nc1ncc2ccc(-c3ccccc3S(=O)(=O)N(C)C)n2n1 [Example 35, 2-{2-[2-Methoxy-4-(4-methyl-piperazin-1-yl)-phenylamino]-pyrrolo[2,1-f][1,2,4]triazin-7-yl}-N,N-dimethyl-benzenesulfonamide]
		< 0.1	0.1 to 1	CNC(=O)CN1CCC(c2ccc(Nc3ncc4ccc(-c5ccccc5OC)n4n3)c(OC)c2)CC1 [Example 867, 2-(4-{3-Methoxy-4-[7-(2-methoxy-phenyl)-pyrrolo[2,1-f][1,2,4]triazin-2-ylamino]-phenyl}-piperidin-1-yl)-N-methyl-acetamide]
		1 to 10	< 0.1	COc1ccc(-c2ccc3cnc(Nc4ccc5c(c4)N(C)CCO5)nn23)cn1 [Example 644, [7-(6-Methoxy-pyridin-3-yl)-pyrrolo[2,1-f][1,2,4]triazin-2-yl]-(4-methyl-3,4-dihydro-2H-benzo[1,4]oxazin-6-yl)-amine]
0.1 to 1	< 0.1			C[C@H](O)CN1CCN(c2ccc(Nc3ncc4ccc(-c5ccc(S(C)(=O)=O)cc5)n4n3)cc2)CC1 [Example 205, (S)-1-(4-{4-[7-(4-Methanesulfonyl-phenyl)-pyrrolo[2,1-f][1,2,4]triazin-2-ylamino]-phenyl}-piperazin-1-yl)-propan-2-ol]
		0.1 to 1	< 0.1	CCN1CCOC(c2ccc(Nc3ncc4ccc(-c5cccc(NS(C)(=O)=O)c5)n4n3)cc2)C1 (stereo not shown) [Example 651, N-(3-{2-[4-(4-Ethyl-morpholin-2-yl)-phenylamino]-pyrrolo[2,1-f][1,2,4]triazin-7-yl}phenyl)methanesulfonamide]
		0.1 to 1	< 0.1	CN1CCN(c2ccc(Nc3ncc4ccc(-c5cccc(S(=O)(=O)NC(C)(C)C)c5)n4n3)cn2)CC1 [Example 1127, N-tert-Butyl-3-{2-[6-(4-methyl-piperazin-1-yl)-pyridin-3-ylamino]-pyrrolo[2,1-f][1,2,4]triazin-7-yl}-benzenesulfonamide]
		0.1 to 1	< 0.1	COc1ccccc1-c1ccc2cnc(Nc3ccc4c(c3)C(NC(=O)OC(C)(C)C)C(O)C4)nn12 (stereo not shown) [Example 673, {2-Hydroxy-6-[7-(2-methoxy-phenyl)-pyrrolo[2,1-f][1,2,4]triazin-2-ylamino]-indan-1-yl}-carbamic acid tert-butyl ester]
		0.1 to 1	< 0.1	CN1CCN(C(=O)C2CCN(c3ccc(Nc4ncc5ccc(-c6cnn(C)c6)n5n4)cc3)CC2)CC1 [Example 1188, (4-Methyl-piperazin-1-yl)-(1-{4-[7-(1-methyl-1H-pyrazol-4-yl)-pyrrolo[2,1-f][1,2,4]triazin-2-ylamino]-phenyl}-piperidin-4-yl)-methanone]
		1 to 10	< 0.1	CC(C)(C)NS(=O)(=O)c1cccc(-c2ccc3cnc(Nc4ccc5nc(CO)[nH]c5c4)nn23)c1 [Example 1066, N-tert-Butyl-3-[2-(2-hydroxymethyl-3H-benzoimidazol-5-ylamino)-pyrrolo[2,1-f][1,2,4]triazin-7-yl]-benzenesulfonamide]
		0.1 to 1	< 0.1	CN1CCN(CCn2cc(Nc3ncc4ccc(-c5ccccc5N(C)S(C)(=O)=O)n4n3)cn2)CC1 [Example 1212, N-Methyl-N-[2-(2-{1-[2-(4-methyl-piperazin-1-yl)-ethyl]-1H-pyrazol-4-ylamino}-pyrrolo[2,1-f][1,2,4]triazin-7-yl)-phenyl]-methanesulfonamide]
		0.1 to 1	1 to 10	COc1cc(N(C)C(=O)CN2CCN(C)CC2)ccc1Nc1ncc2ccc(-c3ccccc3N(C)S(C)(=O)=O)n2n1 [Example 471, N-(4-{7-[2-(Methanesulfonyl-methyl-amino)-phenyl]-pyrrolo[2,1-f][1,2,4]triazin-2-ylamino}-3-methoxy-phenyl)-N-methyl-2-(4-methyl-piperazin-1-yl)-acetamide]
